Laboratory results: patent publication EP4635950A1, “NOVEL CRYSTAL FORM OF GLP-1 RECEPTOR AGONIST, METHOD FOR PREPARING SAME, PHARMACEUTICAL COMPOSITION THEREOF, AND USE THEREOF” (Hangzhou Zhongmeihuadong Pharmaceutical Co., Ltd., priority 2022, dated 2024)
Converted amounts (≈) assume the structure as drawn.

Tests used:
Human GLP-1R = molecular target: T1, Human GLP-1R (Homo sapiens, UniProt P43220); assay: GLP-1R agonistic activity, HTRF cAMP assay in 293A GFP-GLP-1R cells; type: cell-based; conditions: cAMP pathway
T1 construct: expressed in transfected cells; host or cells: 293A cells stably expressing GLP-1R-GFP
T1 sequence (P43220 24-463): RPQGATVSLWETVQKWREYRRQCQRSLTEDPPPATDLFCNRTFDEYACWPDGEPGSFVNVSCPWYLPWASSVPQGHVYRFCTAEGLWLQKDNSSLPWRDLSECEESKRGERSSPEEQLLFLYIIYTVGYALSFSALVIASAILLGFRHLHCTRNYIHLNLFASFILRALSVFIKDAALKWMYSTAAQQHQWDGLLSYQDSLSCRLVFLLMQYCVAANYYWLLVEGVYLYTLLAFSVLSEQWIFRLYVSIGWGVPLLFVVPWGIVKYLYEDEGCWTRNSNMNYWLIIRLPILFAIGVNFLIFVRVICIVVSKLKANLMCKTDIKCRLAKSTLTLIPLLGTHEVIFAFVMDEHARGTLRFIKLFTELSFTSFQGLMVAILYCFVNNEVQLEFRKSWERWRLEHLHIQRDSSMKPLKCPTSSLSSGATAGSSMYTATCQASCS
Excerpt: The method was a competitive immunoassay.

[1] = Suspension competition test of Crystal Form A and Crystal Form G; type: physicochemical; conditions: Crystal Form A and Crystal Form G in EtOH and a mixture of MeOH and water, room temperature and 50°C
[2] = Hygroscopicity by dynamic vapor sorption (DVS) at 25°C; type: physicochemical
[3] = High-humidity stability at 90% RH (HPLC purity, crystal form); type: physicochemical; conditions: for Purity (% Area) / purity decrease: 90% RH
Excerpt: [table] […] Table E-5: Results of High-Humidity Stability Determination

[4] = Equilibrium solubility, 24 hours at 37°C in 4 media, with XRPD of residual solid; type: physicochemical; conditions: for Crystal Form: XRPD
Experimental: After 24 hours, samples were taken and centrifuged for separation. The obtained solids were tested by XRPD, and the supernatants were filtered for solubility testing.

[5] = Crystal form stability on drying or sealed storage; type: physicochemical; conditions: dried at 50°C for 3 hours
Excerpt: The 4 metastable crystal forms described in Example 4 had lower crystal form stability than each crystal form described in Example 3.

[6] = Solid-state stability under long-term and accelerated conditions (HPLC purity, crystal form); type: physicochemical; conditions: for Purity (% Area) / purity decrease: 10 days
Excerpt: [table] […] Table E-3: Results of Solid-State Stability Determination

[7] = Pressure stability at 1000 Mpa for 5 minutes (HPLC purity, crystal form); type: physicochemical
Excerpt: [table] […] Table E-6: Results of Pressure Stability Determination

[8] = High-temperature stability at 60°C (HPLC purity, crystal form); type: physicochemical; conditions: for Purity (% Area) / purity decrease: 60°C
Excerpt: [table] […] Table E-4: Results of High-Temperature Stability Determination

For `O=C(O)c1ccc2nc(CN3CCC(c4cccc(OCc5ccc(C6COC6)cc5F)n4)CC3)n(C[C@@H]3CCO3)c2c1` [Compound 1, (S)-2-((4-(6-((2-fluoro-4-(oxetan-3-yl)benzyl)oxy)pyridin-2-yl)piperidin-1-yl)methyl)-1-(oxetan-2-ylmethyl)-1H-benzo[d]imidazole-6-carboxylic acid], which “agonistic effect on GLP-1R” value (Human GLP-1R) is on record?
The value was “strong agonistic effect”.

With `O=C(O)c1ccc2nc(CN3CCC(c4cccc(OCc5ccc(C6COC6)cc5F)n4)CC3)n(C[C@@H]3CCO3)c2c1` [Crystal Form G, (S)-2-((4-(6-((2-fluoro-4-(oxetan-3-yl)benzyl)oxy)pyridin-2-yl)piperidin-1-yl)methyl)-1-(oxetan-2-ylmethyl)-1H-benzo[d]imidazole-6-carboxylic acid] as the compound, how does the “outcome of suspension competition test” value [1] read?
Its value is “thermodynamically more stable”.

What about the “Sample Weight Change at 80% RH (%)” value [2] of the same compound?
Its value is 0.73%.

And the “Purity (% Area)” value ([3]; 1 Day)?
Its value is 97.67 % Area.

What about the purity decrease ([3]; 1 day) of the same compound?
Its purity decrease is “about 0.1%”.

What about the “Purity (% Area)” value ([3]; 10 days) of the same compound?
Its value is 96.53 % Area.

What about the purity decrease ([3]; 10 days) of the same compound?
Its purity decrease is “about 1.3%”.

And the “Initial Purity (% Area)” value ([3]; initial, before storage)?
The value was 97.81 % Area.

And the “Whether the Crystal Form Changed” value ([4]; 24 h in FaSSGF)?
The value was “YES”.

What about the “Solubility after 24 h” value ([4]; FaSSGF) of the same compound?
Its value is less than 10 µg/mL.

And the “Solubility after 24 h” value ([4]; FaSSIF)?
Its value is 80 µg/mL (≈ 136 µM).

What about the “Solubility after 24 h” value ([4]; FeSSIF) of the same compound?
The value was 270 µg/mL (≈ 460 µM).

And the “Crystal Form” value ([4]; solid after 24 h in FaSSGF)?
Its value is “a hydrochloride salt was formed”.

And the “Crystal Form” value ([4]; solid after 24 h in FaSSIF)?
The value was “Crystal Form G”.

What about the “Crystal Form” value ([4]; solid after 24 h in FeSSIF) of the same compound?
The value was “Crystal Form G”.

And the “Crystal Form” value ([4]; solid after 24 h in H2O)?
The value was “Crystal Form G”.

What about the “crystal form change after drying” value [5] of the same compound?
The value was “no crystal form change is observed”.

What about the “Purity (% Area)” value ([6]; 25°C/60%RH) of the same compound?
Its value is 97.37 % Area.

And the “Purity (% Area)” value ([6]; 40°C/75%RH)?
The value was 97.43 % Area.

What about the purity decrease ([6]; accelerated conditions (40°C/75% RH)) of the same compound?
The purity decrease was “about 0.4%”.

And the crystal form change ([6]; before and after testing, long-term and accelerated conditions)?
Its crystal form change is “no crystal form change was observed”.

What about the “Initial Purity (% Area)” value ([6]; initial, before storage) of the same compound?
Its value is 97.81 % Area.

What about the purity decrease ([6]; long-term conditions (25°C/60% RH)) of the same compound?
The purity decrease was “about 0.4%”.

What about the “Purity (% Area)” value ([7]; 1000 Mpa, 5 min) of the same compound?
Its value is 97.65 % Area.

What about the purity decrease ([7]; 1000 Mpa, 5 min) of the same compound?
Its purity decrease is “about 0.2%”.

What about the “Initial Purity (% Area)” value ([7]; initial, before pressing) of the same compound?
The value was 97.81 % Area.

What about the “Purity (% Area)” value ([8]; 1 day) of the same compound?
The value was 97.55 % Area.

What about the purity decrease ([8]; 1 day) of the same compound?
Its purity decrease is “about 0.3%”.

What about the “Purity (% Area)” value ([8]; 10 days) of the same compound?
The value was 96.63 % Area.

What about the purity decrease ([8]; 10 days) of the same compound?
The purity decrease was “about 1.2%”.

What about the “Initial Purity (% Area)” value ([8]; initial, before storage) of the same compound?
Its value is 97.81 % Area.
